pIC50: −log10 of the molar value.
Key:
[1] = Oral pharmacokinetic study in rat, LC/MS assay in plasma (Examples 21-24); format: in vivo; conditions: 50 mg/kg
Procedure: The following study is an LC/MS assay in plasma of the various molecules over 3 days (11 measurement points in the end). The graphs are always presented in comparison with DX101 which is the reference.
Plasma sampling at 0 (without injection), 5, 10, 15, 30 min, 1 h, 4 h, 8 h, 24 h, 48 h, 72 h (11 points)

[2] = test system: BT-474 human mammary tumor cells; test: Cell viability of BT-474 cells, trypan blue; format: cell-based; conditions: BT-474, Trypan Blue, 48 h; for Mean LogIC50 (±SEM): log of IC50 in μM; for pIC50: Homo sapiens
Procedure: (§1) Cell viability tests were also performed on BT-474 human mammary tumor cells (characterized as triple positive HER2+, ER+, PR+). The BT-474 cells were in a cell culture medium identical to the previous example and seeded in 24-well plates at 70 000 cells per well for cell viability determination using trypan blue, or in 96-well plates at 13 000 cells per well for cell viability determination using the MTT or LDH assay. After 96 hours (h) of culture under normal conditions, i.e. in an incubator at 37° C. with […], BT-474 cells were treated for 48 h with DX101, DX103, DX105, DX111, DX123 and DX127 at 100 nM, 1 μM, 2.5 μM and 10 μM. A control is also performed using the protocol described previously without treatment with DX101, DX103, DX105, DX111, DX123 and DX127.
(§2) After a 10-minute trypsin digestion at 37° C., the cell survival was also quantified by means of a trypan blue test with automatic counting using the Biorad TC20 machine (TC20™ Automated Cell Counter). The trypan blue test is based on the integrity of cell membranes, which is disrupted in the dead cells. Trypan blue stains dead cells blue. The Biorad TC20 cell counter counts the proportion of blue and non-blue cells, and reports the percentage of cells. The percentage of viability is then determined in each well relative to the untreated cells and the IC50 is determined as explained in the preceding example. Also, the percentage viability of the BT-474 cells was determined using the MTT and LDH assay, performed as described in the preceding example.

[3] = test system: BT-474 human mammary tumor cells; test: Cell viability of BT-474 cells, MTT; format: cell-based; conditions: for Mean LogIC50 (±SEM) / pIC50: BT-474, MTT, 48 h; for Mean LogIC50 (±SEM): log of IC50 in μM; for pIC50: Homo sapiens
Procedure: The cell viability is measured by three different methods. For the first method, MTT labeling is performed at 48 hours. This test is based on the use of the tetrazolium salt MTT (3-(4,5-dimethylthiazol-2-yl)-2,5-diphenyltetrazolium bromide). Tetrazolium is reduced by mitochondrial succinate dehydrogenase in active live cells to formazan, a purple colored precipitate. The amount of precipitate formed is proportional to the amount of live cells but also to the metabolic activity of each cell. Thus, a simple determination of the optical density at 550 nm by spectroscopy makes it possible to determine the relative amount of live and metabolically active cells. After 48 hours, the medium is aspirated, and the cells are incubated with MTT (0.5 mg/ml in culture medium) for about 3 hours. The MTT solution is aspirated and the purple crystals are dissolved in dimethyl sulfoxide (DMSO). The OD (optical density) is measured at 550 nm. The percentage of viability is then determined in each well against the CTL and the IC50 (concentration at which 50% of cells remain alive) is determined for each molecule with the Prism software using a nonlinear regression curve (log(inhibitor) vs. Response).
as §1, §2

4T1 tumors = test: Tumor growth and survival in vivo, subcutaneous 4T1 tumors in Balb/c mice; conditions: 40 mg/kg, gavage, daily; for Inhibition of tumor growth at 7 days: Balb/c mice with 4T1 tumors
Procedure: All the animal procedures were conducted according to our institutional guidelines after approval by the ethics committee. The 4T1 cells were cultured as previously, dissociated in trypsin, washed twice with cold PBS and resuspended in 1.5 million/ml PBS. 4T1 tumors were obtained by subcutaneous transplantation of 0.150 million cells in 100 μL into the flank of female Balb/c mice (9 weeks old, […]). When the tumors reached a volume of 50-100 mm^3, the mice were gavaged with 40 mg/kg of DX101 or 40 mg/kg of DX111 or the control vehicle (water). Treatment was performed daily until the end of the experiment (tumor volume >1000 mm^3). Tumor volume was determined daily using a caliper and calculated using the formula: ½×(Length*Width^2). The percentage of tumor growth inhibition was determined using the following formula: 100×(1-(Tumor volume, day 7/tumor volume day 0)DX111)/(1-(Tumor volume, day 7/tumor volume day 0)vehicle).
The Kaplan-Meier method was used to compare animal survival.

SMILES | Area under the curve ([1]; oral, plasma, Example 24) | Max concentration ([1]; oral, plasma, Example 24) [nM] | Area under the curve ([1]; oral, plasma, Examples 21-23) | Max concentration ([1]; oral, plasma, Examples 21-23) [nM] | Mean LogIC50 (±SEM) [2] | pIC50 [2] | Mean LogIC50 (±SEM) [3] | pIC50 [3] | median survival (4T1 tumors) [days] | survival after 15 days of treatment (4T1 tumors) [%] | Inhibition of tumor growth at 7 days (4T1 tumors) [%] | Area under the curve ([1]; in vivo, po) | Max concentration ([1]; in vivo, po) [nM] | Time for Cmax ([1]; in vivo, po) [min] | bioavailability / extent of absorption compared with DX101 ([1]; in vivo, po) | maximum concentration compared with DX101 ([1]; in vivo, po) | speed of absorption compared with DX101 ([1]; in vivo, po) | activity compared with DX101 ([3]; BT-474, Tables 2a, 2b and 2c (MTT, LDH, Trypan Blue)) | effect on tumor growth reduction compared with DX101 (4T1 tumors; p<0.01)
CC(C)CCC[C@@H](C)[C@H]1CC[C@H]2[C@@H]3C[C@@H](NCCc4c[nH]cn4)[C@@]4(O)C[C@@H](O)CC[C@]4(C)[C@H]3CC[C@]12C [DX101, 5α-hydroxy-6β-[2-(1H-imidazol-4-yl)ethylamino]cholestan-3β-ol, reference compound] | 3019 | 150 | 143297 | 140 | 0.61 ± 0.20 | 5.39 | 0.88 ± 0.03 | 5.12 | 9 | 0 | 48 |  |  |  |  |  |  |  | 
CC(C)CCC[C@@H](C)[C@H]1CC[C@H]2[C@@H]3C[C@@H](NCCc4c[nH]cn4)[C@@]4(O)C[C@@H](F)CC[C@]4(C)[C@H]3CC[C@]12C [DX111, 3β-fluoro-5α-hydroxy-6β-[2-(1H-imidazol-4-yl)ethylamino]cholestane] |  |  |  |  | 0.78 ± 0.15 | 5.22 | 0.95 ± 0.10 | 5.05 | 10 | 25 | 67 | 368921 | 515 | 240 | three-fold higher absorption | higher maximum concentration | faster absorption | similar | superior effect
